Data taken from patent US20190192532A1, “COMBINATION THERAPY OF BROMODOMAIN INHIBITORS AND CHECKPOINT BLOCKADE” (DANA-FARBER CANCER INSTITUTE, priority 2015, published 2019).

Columns and labels:
PD-L1 (CD274) = test: PD-L1 expression on Eμ-Myc lymphoma cell lines by flow cytometry (MFI) after in vitro treatment; assay type: cell-based, murine; conditions: for expression of PD-L1 (CD274) on lymphoma cells (MFI): 24 hours in vitro, vs DMSO
Protocol: (§1) […] lymphoma cells (5×10^5) were incubated in the presence of JQ1, or DMSO, in 500 μL culture media in a 48 well plates (Corning, N.Y.) prior to analysis of PD-L1/L2 expression by flow cytometry. Human RPMI-8226 and L540 cells (5×10^5) were incubated in the presence of JQ1, or DMSO vehicle, in 500 μL culture media in a 48 well plates (Corning, N.Y.). Additionally RPMI-8226 cells were cultured with 100 ng/ML, IFN-γ as a single agent and in combination with JQ1, prior to analysis of PD-L1/L2 expression by flow cytometry.
Cell suspensions were washed once with ice-cold flow cytometry buffer (2% FCS and 0.02% NaN3 in PBS) and resuspended in anti-CD16/32 monoclonal antibody (clone 2.4G2) on ice for 30 minutes to block Fc receptors. Cell suspensions were washed once with ice-cold flow cytometry buffer and stained on ice for 30 minutes with the following conjugated antibodies: anti-mouse CD3 (pacific blue, 1:400, clone 17A2), anti-mouse CD4 (APC, 1:400, clone RM4-5), anti-mouse CD8 (PE-Cy7, 1:400, clone 53-6.7), anti-mouse PD-1 (FITC, 1:400, clone J43), anti-mouse PD-L1 (PE, 1:100, clone MIH5), anti-mouse PD-L2 (Biotin, 1:200, clone TY25), anti-human PD-L1 (PE, 1:200, clone 29E.2A3), or anti-human PD-L2 (Biotin, 1:200, clone 24F.10C12). Biotinylated antibodies were subsequently incubated with Streptavidin-PE-Cy7 (1:1000, catalogue number 25-4317-82) or Streptavidin-Pacific Blue (1:1000, catalogue number 48-4317-82) for 30 minutes on ice. Anti-Armenian Hamster IgG (FITC, 1:400, catalogue number 554011), Mouse IgG2aκ (PE, 1:100, clone RTK2758), Rat IgG2aκ (Biotin, 1:200, clone eBR2a), Mouse IgG2bκ (PE, 1:200, catalogue number 559529), and Mouse IgG2aκ (Biotin, 1:200, clone eBM2a) were used as isotype control antibodies, respectively. All antibodies were purchased from BioLegend (San Diego, Calif.), eBiosciences (San Diego, Calif.), or BD Bioscience (San Diego, Calif.). Cell suspensions were washed once with ice-cold flow cytometry buffer, resuspended in ice-cold flow cytometry buffer containing 7-AAD (1:1000, BD Bioscience) and analyzed by flow cytometry. Data was collected on a LSR Fortessa flow cytometer (BD Biosciences) and analyzed using FlowJo Software, version 10.0.7 (Tree Star).
As described in FIGS. 2A and 2B, JQ1 downregulates the expression of PD-L1 (CD274) on lymphoma cells as determined by flow cytometry analysis. Graphs showing the mean fluorescence intensity (MFI) of PD-L1 on Eμ-Myc lymphoma cell lines (FIG. 2A) ^#4242 and (FIG. 2B) ^#299 over-expressing Bcl-2 following 24 hours treatment in vitro with indicated concentrations of JQ1, or DMSO control are provided. Representative data are presented as mean MFI of cells cultured and analyzed in triplicate±S.E.M. (****p <0.0001, Student's t test).
PD-L1 downregulation following BET inhibition is time-dependent. Flow cytometry analysis of PD-L1 expression on Eμ-Myc lymphoma cell line ^#6066 following treatment in vitro with 500 nM JQ1 or DMSO control for indicated time points was performed.
Chemically distinct bromodomain inhibitors downregulate the expression of PD-L1 (CD274) on lymphoma cells, as shown by flow cytometry. […] Representative data are presented as mean MFI of cells cultured and analyzed in triplicate±S.E.M. (***p<0.001, Student's t test).

Eμ-Myc lymphoma = test: Survival of mice bearing transplanted Eμ-Myc lymphoma (Kaplan-Meier); assay type: in vivo, mouse; conditions: 50 mg/kg daily i.p.
Protocol: (§2) Female C57BL/6 mice were purchased. C57BL/6.Rag2cγ^−/− mice were bred in house. C57BL/6.Rag1^−/− mice were purchased. For transplantation of Eμ-Myc lymphomas in vivo, cohorts of six- to eight-week-old syngeneic mice were inoculated via tail vein injection with 1-4×10^5 Eμ-Myc lymphoma cells. Mice were treated with 50 mg/kg JQ1, reconstituted in 1 part DMSO to 9 parts 10% (w/v) Hydroxypropyl-β-cyclodextrin (HPBCD; Cyclodextrin Technologies Development Inc., Gainesville, Fla.) In sterile water, or DMSO vehicle control. Mice were dosed once daily (5 days/week) via intra-peritoneal (i.p.) injection, commencing three days post-intravenous inoculation, for a total of 5 weeks therapy or until treatment failure. Tumor-bearing C57BL/6 mice were treated with the following monoclonal antibodies via i.p. injection: Anti-4-1-BB (Anti-CD137, 100 μg, 3H3; BioXCell), anti-PD-1 (100 μg, […]; BioXCell), or control immunoglobulin. (cIg, Rat IgG2a, 2A3, 100 μg; BioXCell). Anti-PD-1 mAb was dosed on days 5, 10, 15, and 20 post tumor transplant. Anti-4-1BB mAb was dosed on days 5, 8, and 11 post tumor transplant.
Cohorts of mice on a C57BL/6 background (n=10 per treatment group) were injected intravenously with 1-5×10^5 Eμ-Myc lymphoma cells three days prior to commencement of daily dosing with JQ1 (50 mg/kg), or DMSO vehicle., via i.p. injection. […]

PD-L1 [1] = test: PD-L1 expression on tumor cells of treated lymphoma-bearing mice by flow cytometry; assay type: in vivo, mouse
Protocol: (§3) Cell suspensions were washed once with ice-cold flow cytometry buffer (2% FCS and 0.02% NaN3 in PBS) and resuspended in anti-CD16/32 monoclonal antibody (clone 2.4G2) on ice for 30 minutes to block Fc receptors. […] Cell suspensions were washed once with ice-cold flow cytometry buffer, resuspended in ice-cold flow cytometry buffer containing 7-AAD (1:1000, BD Bioscience) and analyzed by flow cytometry. Data was collected on a LSR Fortessa flow cytometer (BD Biosciences) and analyzed using FlowJo Software, version 10.0.7 (Tree Star). […]
(§4) A cohort of mice were injected intravenously with 1-5×10^5 Eμ-Myc lymphoma ^#4242 cells and left for 12 days to develop bulky nodal disease. Peripheral lymph nodes were harvested 16 hours following a single dose of JQ1 (50 mg/kg), or DMSO vehicle (n=3 per treatment group) and assessed by flow cytometry. […]
A cohort of mice were injected intravenously with 1-5×10^5 Eμ-Myc lymphoma ^#4242/Bcl-2 cells and treated daily with JQ1 (50 mg/kg), or DMSO vehicle (n=5 per treatment group). At day 18, peripheral blood was obtained and tumor cells were assessed by flow cytometry. […]

PD-L2 (CD273) = test: PD-L2 expression on tumor cells of treated lymphoma-bearing mice by flow cytometry; assay type: in vivo, mouse; conditions: single dose 50 mg/kg; peripheral lymph nodes 16 hours after dose; Eμ-Myc lymphoma #4242 in C57BL/6 mice
Protocol: Cell suspensions were washed once with ice-cold flow cytometry buffer (2% FCS and 0.02% NaN3 in PBS) and resuspended in anti-CD16/32 monoclonal antibody (clone 2.4G2) on ice for 30 minutes to block Fc receptors. Cell suspensions were washed once with ice-cold flow cytometry buffer and stained on ice for 30 minutes with the following conjugated antibodies: anti-mouse CD3 (pacific blue, 1:400, clone 17A2), anti-mouse CD4 (APC, 1:400, clone RM4-5), anti-mouse CD8 (PE-Cy7, 1:400, clone 53-6.7), anti-mouse PD-1 (FITC, 1:400, clone J43), anti-mouse PD-L1 (PE, 1:100, clone MIH5), anti-mouse PD-L2 (Biotin, 1:200, clone TY25), anti-human PD-L1 (PE, 1:200, clone 29E.2A3), or anti-human PD-L2 (Biotin, 1:200, clone 24F.10C12). […] Cell suspensions were washed once with ice-cold flow cytometry buffer, resuspended in ice-cold flow cytometry buffer containing 7-AAD (1:1000, BD Bioscience) and analyzed by flow cytometry. Data was collected on a LSR Fortessa flow cytometer (BD Biosciences) and analyzed using FlowJo Software, version 10.0.7 (Tree Star). […]
as §4

PD-L1 transcript = test: Quantitative real-time PCR of PD-L1 mRNA in Eμ-Myc lymphoma cell lines; assay type: cell-based, Mus musculus; conditions: 1000 nM; Eμ-Myc lymphoma #4242 and #299 over-expressing Bcl-2; indicated time points
Protocol: Eμ-Myc lymphomas cells were cultured in the presence of JQ1, or DMSO, as described above. RNA was extracted from cell pellets using the Nucleospine® RNA extraction kit (Macherey-Nagel, Bethlehem, Pa.) as per the manufacturer's instructions. cDNA was synthesized according to the manufacturer's instructions (Promega, Sydney, NSW). Quantitative PCR analysis of samples was performed on the 7900HT Fast Real-Time PCR System (Applied Biosystems, Mulgrave, VIC, Australia') with SYBR-green ROX mix (Agilent, Mulgrave, VIC, Australia). GAPDH was used as the murine control genes. Primer sequences were: Mus musculus PD-L1 F: […] (SEQ ID NO: 1) R: […] (SEQ ID NO: 2), Mus musculus GAPDH F: […] (SEQ ID NO: 3) R: […] (SEQ ID NO: 4).
Quantitative real-time-PCR (qPCR) analysis of PD-L1 mRNA levels in Eμ-Myc lymphoma cell lines (FIG. 2G) ^#4242 and (FIG. 2H) ^#299 over-expressing Bcl-2 following treatment with 1000 nM JQ1, or DMSO control, was performed at indicated time points. Transcript levels are presented as fold change compared to DMSO. Data are presented as mean fold-change from 3 separate experiments±S.E.M. (**p<0.01, ***p<0.001, ****p<0.0001, Student's t test).

PD-L1 [2] = test: Constitutive PD-L1 expression on Hodgkin lymphoma cell line L540 by flow cytometry; assay type: cell-based, human; conditions: L540 cells; 24 hours in vitro; indicated concentrations
Protocol: as §1, §3

PD-L1 [3] = test: IFN-γ-inducible PD-L1 expression on multiple myeloma cell line RPMI-8226 by flow cytometry; assay type: cell-based, human; conditions: RPMI-8226 cells; 500 nM with 100 ng/mL IFN-γ; 24 hours
Protocol: as §1
Cell suspensions were washed once with ice-cold flow cytometry buffer (2% FCS and 0.02% NaN3 in PBS) and resuspended in anti-CD16/32 monoclonal antibody (clone 2.4G2) on ice for 30 minutes to block Fc receptors. […] Cell suspensions were washed once with ice-cold flow cytometry buffer, resuspended in ice-cold flow cytometry buffer containing 7-AAD (1:1000, BD Bioscience) and analyzed by flow cytometry. Data was collected on a LSR Fortessa flow cytometer (BD Biosciences) and analyzed using FlowJo Software, version 10.0.7 (Tree Star).
JQ1 treatment downregulates the IFN-γ-inducible expression of PD-L1 on human myeloma cell lines. […] Representative data are presented as mean MFI of cells cultured and analyzed in triplicate=S.E.M. (*p<0.05, Student's t test).

Eμ-Myc lymphoma #299 = test: Survival of mice bearing Eμ-Myc lymphoma #299 treated with JQ1 plus anti-PD-1 or anti-4-1BB antibody; assay type: in vivo, mouse; conditions: JQ1 50 mg/kg i.p., 25 doses, combined with 100 μg anti-PD-1 (days 5, 10, 15, 20) or anti-4-1BB (days 5, 8, 11)
Protocol: as §2
FIGS. 4A and 4B show Kaplan-Meier survival curves representing cohorts of […] (n=6 per treatment group) injected intravenously with 1-5×10^5 Eμ-Myc lymphoma ^#299 cells. […]

[4] = Eμ-Myc lymphoma cell line #6066, 1 μM

Cc1sc2c(c1C)C(c1ccc(Cl)cc1)=N[C@@H](CC(=O)NCCCCNC(=O)COc1cccc3c1C(=O)N(C1CCC(=O)NC1=O)C3=O)c1nnc(C)n1-2 (some centres unmarked) [dBET1]
expression of PD-L1 (CD274) on lymphoma cells (MFI) (PD-L1 (CD274); [4]): downregulate

COc1cc2c(cc1-c1c(C)noc1C)ncc1[nH]c(=O)n([C@H](C)c3ccccn3)c12 [IBET-1.51]
expression of PD-L1 (CD274) on lymphoma cells (MFI) (PD-L1 (CD274); [4]): downregulate

Cc1sc2c(c1C)C(c1ccc(Cl)cc1)=N[C@@H](CC(=O)Nc1ccc(O)cc1)c1nnc(C)n1-2 [Y803]
expression of PD-L1 (CD274) on lymphoma cells (MFI) (PD-L1 (CD274); [4]): downregulate

Cc1sc2c(c1C)C(c1ccc(Cl)cc1)=N[C@@H](CC(=O)OC(C)(C)C)c1nnc(C)n1-2 [JQ1]
survival of JQ1-treated immune deficient mice versus JQ1-treated wild type mice (Eμ-Myc lymphoma; C57BL/6.Rag2cγ−/− and C57BL/6.Rag1−/− versus wild type C57BL/6): succumbed to disease significantly earlier
survival versus DMSO vehicle (Eμ-Myc lymphoma; immune competent (C57BL/6) and immune deficient (Rag2cγ−/−, Rag1−/−) mice, Eμ-Myc lymphoma #4242 and #299): significant survival advantage
expression of PD-L1 (CD274) on lymphoma cells (MFI) (PD-L1 (CD274); Eμ-Myc lymphoma #4242 and #299 over-expressing Bcl-2, indicated concentrations): downregulates
time course of PD-L1 downregulation (PD-L1 (CD274); Eμ-Myc lymphoma cell line #6066, 500 nM, indicated time points): time-dependent
expression of PD-L1 (CD274) on lymphoma cells (MFI) (PD-L1 (CD274); [4]): downregulate
PD-L1 expression on circulating tumor cells (MFI), chronic treatment (PD-L1 [1]; 50 mg/kg daily, peripheral blood at day 18, Eμ-Myc lymphoma #4242/Bcl-2 in C57BL/6 mice): express lower levels of PD-L1
PD-L1 expression on live GFP-positive tumor cells (MFI), acute dose (PD-L1 [1]; single dose 50 mg/kg, peripheral lymph nodes 16 hours after dose, Eμ-Myc lymphoma #4242 in C57BL/6 mice): rapidly downregulates
PD-L2 expression on live GFP-positive tumor cells (MFI), acute dose (PD-L2 (CD273)): rapidly downregulates
PD-L1 mRNA level (fold change compared to DMSO) (PD-L1 transcript): rapidly downregulates
constitutive expression of PD-L1 (MFI) (PD-L1 [2]): downregulates
IFN-γ-inducible expression of PD-L1 (MFI) (PD-L1 [3]): downregulates
anti-tumor response (survival) in combination therapy (Eμ-Myc lymphoma #299): Promotes Curative Anti-Tumor Responses

COc1cc(OC)c2c(=O)[nH]c(-c3cc(C)c(OCCO)c(C)c3)nc2c1 [RVX-208]
expression of PD-L1 (CD274) on lymphoma cells (MFI) (PD-L1 (CD274); Eμ-Myc lymphoma cell line #6066, 10 μM): downregulate

CCNC(=O)C[C@@H]1N=C(c2ccc(Cl)cc2)c2cc(OC)ccc2-n2c(C)nnc21 [IBET-762]
expression of PD-L1 (CD274) on lymphoma cells (MFI) (PD-L1 (CD274); [4]): downregulate
